In general, IC50 refers to the point on the concentration scale where inhibition reaches its midpoint. Higher therefore signals weaker potency.

Among the data in paper PMC9960487, “A novel Menin-MLL1 inhibitor, DS-1594a, prevents the progression of acute leukemia with rearranged MLL1 or mutated NPM1” (Cancer Cell International, 2023) are IC50 values, retold here.

The assay concerns the target T1, hERG channel (Homo sapiens, UniProt Q12809).
T1 construct: gene KCNH2
In words: inhibition of hERG channel current (data not shown). The class given is cell-based. In general terms: hERG is a cardiac potassium channel; its block is linked to QT prolongation.

SMILES strings stand for the structures.

T1 sequence (Q12809 whole entry): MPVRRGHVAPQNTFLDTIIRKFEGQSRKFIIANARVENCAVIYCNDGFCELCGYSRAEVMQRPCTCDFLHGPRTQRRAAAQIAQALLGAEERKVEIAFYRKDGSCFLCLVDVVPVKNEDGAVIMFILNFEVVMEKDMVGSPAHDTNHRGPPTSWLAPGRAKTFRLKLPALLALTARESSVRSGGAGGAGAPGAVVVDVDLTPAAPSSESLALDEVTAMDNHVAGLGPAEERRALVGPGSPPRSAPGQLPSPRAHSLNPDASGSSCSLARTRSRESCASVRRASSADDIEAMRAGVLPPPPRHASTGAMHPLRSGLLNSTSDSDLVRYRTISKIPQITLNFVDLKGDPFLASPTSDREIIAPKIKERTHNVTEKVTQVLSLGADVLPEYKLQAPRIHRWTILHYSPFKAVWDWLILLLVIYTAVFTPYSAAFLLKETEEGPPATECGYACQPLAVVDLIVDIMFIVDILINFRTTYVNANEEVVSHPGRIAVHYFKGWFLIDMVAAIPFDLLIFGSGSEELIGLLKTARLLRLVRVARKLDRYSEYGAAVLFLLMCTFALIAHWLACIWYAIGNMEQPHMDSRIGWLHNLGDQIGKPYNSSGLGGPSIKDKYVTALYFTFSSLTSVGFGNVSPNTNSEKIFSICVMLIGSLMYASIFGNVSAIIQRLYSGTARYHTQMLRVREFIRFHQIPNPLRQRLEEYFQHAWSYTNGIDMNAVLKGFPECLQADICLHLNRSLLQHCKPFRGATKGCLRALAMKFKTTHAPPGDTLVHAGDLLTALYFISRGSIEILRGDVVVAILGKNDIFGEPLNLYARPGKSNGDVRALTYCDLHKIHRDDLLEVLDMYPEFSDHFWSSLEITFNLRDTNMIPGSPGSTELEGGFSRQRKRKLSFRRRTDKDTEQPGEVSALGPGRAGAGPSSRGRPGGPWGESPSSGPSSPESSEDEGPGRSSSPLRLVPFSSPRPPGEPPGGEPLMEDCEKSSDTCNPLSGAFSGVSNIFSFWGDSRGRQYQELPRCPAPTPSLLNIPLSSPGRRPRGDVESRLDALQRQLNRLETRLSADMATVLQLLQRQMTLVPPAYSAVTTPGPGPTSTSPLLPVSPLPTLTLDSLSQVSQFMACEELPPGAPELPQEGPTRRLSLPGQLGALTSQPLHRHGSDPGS

For the molecule `COc1cc(-c2ccc(CN[C@H]3C[C@@H](O)[C@@H](N(C)c4ncnc5sc(CC(F)(F)F)cc45)C3)cc2)nnc1OC` [DS-1594a, (1R, 2S, 4R)-4-({[4-(5,6-dimethoxypyridazin-3-yl)phenyl]methyl}amino)-2-{methyl[6-(2,2,2-trifluoroethyl)thieno[2,3-d]pyrimidin-4-yl]amino}cyclopentan-1-ol], the IC50 turned out to be 300 nM.
